These results are taken from patent US6685617B1, “Inhibitors of α4β1 mediated cell adhesion” (Pharmacia & Upjohn Company, priority 1998, dated 2004).

The target in test [1] is T1, α4β1 integrin (Jurkat T-cell adhesion to IL-1 stimulated endothelial cell monolayers) (Homo sapiens, UniProt P05556+P13612).
T1 construct: a T-cell line, Jurkat, known to express the α4β1 integrin; host or cells: Jurkat T-cell line
Description: Jurkat-endothelial cell adhesion assay (Jurkat EC). It counts as cell-based. As to conditions: Jurkat cells on IL-1 stimulated human umbilical vein endothelial cells; read-out: JK/EC (Jurkat EC Assay IC50 value range). In a few lines: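 BCECF-AM-labelled Jurkat cells were mixed with compound, generally 100, 20, 5 and 1.25 μM, and added to HUVEC monolayers (passage ≤6) pre-stimulated 4 hr at 37° C with 0.1 ng/ml IL-1. After 5 min on ice and 20 min at 37° C, washed wells were read by fluorescence as % adhesion relative to no compound.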

Test [2] deals with T2, α4β1 integrin (Jurkat cell adhesion to immobilized CS-1 derived peptide CLHPGEILDVPST) (Homo sapiens, UniProt P05556+P13612).
T2 construct: 100 μl of Jurkat cells (2.5×10^6 cells/ml) in DMEM plus BSA; host or cells: Jurkat T-cell line
T2 sequence (P13612 34-1032): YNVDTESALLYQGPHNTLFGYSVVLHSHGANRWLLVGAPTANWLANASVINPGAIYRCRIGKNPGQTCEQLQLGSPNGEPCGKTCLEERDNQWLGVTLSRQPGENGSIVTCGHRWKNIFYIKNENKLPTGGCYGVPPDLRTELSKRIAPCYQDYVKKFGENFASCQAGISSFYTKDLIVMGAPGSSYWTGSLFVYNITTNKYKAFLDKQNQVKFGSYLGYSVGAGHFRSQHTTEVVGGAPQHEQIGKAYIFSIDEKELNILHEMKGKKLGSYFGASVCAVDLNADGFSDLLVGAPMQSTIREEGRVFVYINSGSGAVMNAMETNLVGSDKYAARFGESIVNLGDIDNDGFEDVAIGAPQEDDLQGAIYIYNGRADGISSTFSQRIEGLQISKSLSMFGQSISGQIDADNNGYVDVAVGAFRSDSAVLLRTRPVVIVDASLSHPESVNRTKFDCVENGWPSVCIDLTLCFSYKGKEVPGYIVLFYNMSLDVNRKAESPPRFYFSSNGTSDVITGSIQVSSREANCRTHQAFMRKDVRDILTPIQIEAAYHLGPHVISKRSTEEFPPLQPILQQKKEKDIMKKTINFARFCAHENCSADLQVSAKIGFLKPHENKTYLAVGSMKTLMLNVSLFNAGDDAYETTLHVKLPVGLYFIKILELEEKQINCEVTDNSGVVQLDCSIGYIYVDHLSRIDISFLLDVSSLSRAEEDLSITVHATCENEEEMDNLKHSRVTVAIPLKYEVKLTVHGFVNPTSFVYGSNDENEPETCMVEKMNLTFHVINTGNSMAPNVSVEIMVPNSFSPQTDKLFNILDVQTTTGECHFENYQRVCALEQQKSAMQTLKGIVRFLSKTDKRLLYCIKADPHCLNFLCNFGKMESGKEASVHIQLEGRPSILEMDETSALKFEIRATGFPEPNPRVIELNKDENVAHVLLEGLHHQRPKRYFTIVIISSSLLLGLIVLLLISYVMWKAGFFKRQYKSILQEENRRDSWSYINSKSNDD
T2 sequence (P05556 21-798): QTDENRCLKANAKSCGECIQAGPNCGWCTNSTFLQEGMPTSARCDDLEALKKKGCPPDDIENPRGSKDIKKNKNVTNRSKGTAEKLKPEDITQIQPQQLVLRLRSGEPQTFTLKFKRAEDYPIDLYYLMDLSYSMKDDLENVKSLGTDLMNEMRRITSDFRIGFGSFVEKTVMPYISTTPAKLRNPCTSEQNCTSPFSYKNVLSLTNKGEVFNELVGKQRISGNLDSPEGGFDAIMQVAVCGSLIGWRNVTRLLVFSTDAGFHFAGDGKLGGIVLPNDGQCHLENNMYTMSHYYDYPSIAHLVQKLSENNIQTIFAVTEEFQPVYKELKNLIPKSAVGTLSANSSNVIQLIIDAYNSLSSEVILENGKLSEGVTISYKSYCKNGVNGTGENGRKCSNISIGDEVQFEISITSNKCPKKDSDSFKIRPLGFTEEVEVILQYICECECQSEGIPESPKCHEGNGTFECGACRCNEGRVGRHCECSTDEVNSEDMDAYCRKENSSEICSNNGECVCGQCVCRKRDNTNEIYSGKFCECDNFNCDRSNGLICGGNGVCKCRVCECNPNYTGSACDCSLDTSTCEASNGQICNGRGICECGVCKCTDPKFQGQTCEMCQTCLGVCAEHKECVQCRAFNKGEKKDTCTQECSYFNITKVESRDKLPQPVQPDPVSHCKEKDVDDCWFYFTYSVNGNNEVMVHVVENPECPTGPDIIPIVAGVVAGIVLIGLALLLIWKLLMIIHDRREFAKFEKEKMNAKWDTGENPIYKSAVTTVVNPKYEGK
Description: Jurkat-CS-1 assay. It counts as cell-based. As to conditions: Jurkat cells on CS-1 peptide coated plates; read-out: JK/CS-1 (Jurkat CS-1 Assay IC50 value range). In a few lines:
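CS-1 peptide was SPDP-crosslinked onto HSA-coated plates and blocked with BSA. Jurkat cells (2.5×10^6 cells/ml) in DMEM/BSA were mixed with compound, generally at 100, 20, 5 and 1.25 μM, and allowed to adhere for 1 hr at 37° C. Bound cells were fixed, stained with toluidine blue and quantified by OD590.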

T1 sequence (P13612 34-1032): as the sequence (P13612 34-1032) above
T1 sequence (P05556 21-798): as the sequence (P05556 21-798) above

Regarding `O=C(O)CCC(=O)N1CCSCC1C(=O)N[C@@H](Cc1ccc(OCc2c(Cl)cccc2Cl)cc1)C(=O)O` (stereo in doubt) [Example 105, [R-(R*,S*)]-3-[[[1-Carboxy-2-[4-[(2,6-dichlorophenyl)methoxy]phenyl]ethyl]amino]carbonyl]-γ-oxo-4-thiomorpholinebutanoic Acid], the IC50 in test [1] is at least 1000 nM; in test [2] it was 50 to 750 nM.

For `CCS(=O)(=O)N1CSC[C@@H]1C(=O)N[C@@H](Cc1ccc(NC(=O)c2c(Cl)cccc2Cl)cc1)C(=O)OC` [Example 42], the IC50 fell in the range of 250 to 1000 nM in test [1] and 50 to 750 nM in test [2].

As to `COCCC(=O)N1CCC[C@H]1C(=O)N[C@@H](Cc1ccc(NC(=O)c2c(Cl)cccc2Cl)cc1)C(=O)O` [Example 229], the IC50 in test [1] was at least 1000 nM; in test [2] it was 50 to 750 nM.

Take `O=C(O)c1ccc(C(=O)N2CCCC[C@H]2C(=O)N[C@@H](Cc2ccc(NC(=O)c3c(Cl)cccc3Cl)cc2)C(=O)O)nc1` [Example 187]: the IC50 in test [1] is at least 1000 nM; in test [2], 50 to 750 nM.

Consider `CCS(=O)(=O)N1CSC[C@@H]1C(=O)N[C@@H](Cc1ccc(NC(=O)c2c(Cl)cccc2Cl)cc1)C(=O)O` [Example 43], for which the figures for the IC50 in test [1] and in test [2] were at most 250 nM and at most 50 nM, respectively.

Take `O=C(Nc1ccc(C[C@H](NC(=O)C2CCCN(C(=O)C3CCCC(C(=O)O)C3)C2)C(=O)O)cc1)c1c(Cl)cccc1Cl` (stereo partly drawn) [Example 200]: the IC50 in test [1] was at least 1000 nM; in test [2] it was 50 to 750 nM.

With `CC1(C)SC(C)(C)N(C(=O)CCCC(=O)O)[C@@H]1C(=O)N[C@@H](Cc1ccc(NC(=O)c2c(Cl)cccc2Cl)cc1)C(=O)O` (relative stereo) [Example 88, [R-(R*,S*)]-4-[[[1-Carboxy-2-[4-[(2,6-dichlorobenzoyl)amino]phenyl]ethyl]amino]carbonyl]-2,2,5,5-tetramethyl-δ-oxo-3-thiazolidinepentanoic Acid], the results for the IC50 in test [1] and in test [2] were at least 1000 nM and 50 to 750 nM, respectively.

Turning to `COc1ccc(C(=O)N2CCC[C@H]2C(=O)N[C@@H](Cc2ccc(NC(=O)c3c(Cl)cccc3Cl)cc2)C(=O)O)cc1OC` [Example 233], the IC50 in test [1] is at least 1000 nM; in test [2] it was 50 to 750 nM.

For the compound `COC(=O)[C@H](Cc1ccc(NC(=O)c2c(Cl)cccc2Cl)cc1)NC(=O)[C@@H]1CSCN1C(=O)OC(C)(C)C` (stereo in doubt) [Example 13, [R-(R*,S*)]-4-[[[1-[[4-[(2,6-Dichlorobenzoyl)amino]phenyl]methyl]-2-methoxy-2-oxoethyl]amino]carbonyl]-3-thiazolidinecarboxylic Acid 3-(1,1-Dimethylethyl)ester], the IC50 in test [1] is at least 1000 nM; in test [2], at least 750 nM.

As to `COC(=O)[C@H](Cc1ccc(OCc2c(Cl)cccc2Cl)cc1)NC(=O)[C@H]1CSCN1C(=O)OC(C)(C)C` (relative stereo) [Example 32, [S-(R*,R*)]-4-[[[1-[4-[(2,6-Dichlorophenyl)methoxy]phenyl]methyl]-2-methoxy-2-oxoethyl]amino]carbonyl]-3-thiazolidinecarboxylic Acid 3-(1,1-Dimethylethyl)ester], the figures for the IC50 in test [1] and in test [2] were at least 1000 nM and at least 750 nM, respectively.

Take `COCCC(=O)N1CCC[C@@H]1C(=O)N[C@@H](Cc1ccc(NC(=O)c2c(Cl)cccc2Cl)cc1)C(=O)O` [Example 256]: the IC50 was at most 250 nM in test [1] and at most 50 nM in test [2].

In the case of `O=C(O)c1cncc(C(=O)N2CCC[C@@H]2C(=O)N[C@@H](Cc2ccc(NC(=O)c3c(Cl)cccc3Cl)cc2)C(=O)O)c1` [Example 257], the IC50 in test [1] lay within 250 to 1000 nM; in test [2], 50 to 750 nM.

For `CC1(C)N[C@H](C(=O)N[C@@H](Cc2ccc(NC(=O)c3c(Cl)cccc3Cl)cc2)C(=O)O)CS1` [Example 74, 4-[(2,6-Dichlorobenzoyl)amino]-N-[[(4R)-2,2-dimethyl-4-thiazolidinyl]carbonyl]-L-phenylalanine], the IC50 fell in the range of 250 to 1000 nM in test [1] and 50 to 750 nM in test [2].

In the case of `COC(=O)[C@H](Cc1ccc(NC(=O)c2c(Cl)cccc2Cl)cc1)NC(=O)[C@H]1N(C(=O)OC(C)(C)C)CSC1(C)C` (relative stereo) [Example 17, [R-(R*,S*)]-4-[[[1-[[4-[(2,6-Dichlorobenzoyl)amino]phenyl]methyl]-2-methoxy-2-oxoethyl]amino]carbonyl]-5,5-dimethyl-3-thiazolidinecarboxylic Acid 3-(1,1-Dimethylethyl)ester], the IC50 in test [1] was at least 1000 nM; in test [2] it was at least 750 nM.

With `CC(C)(C)NC(=O)N1CSC[C@@H]1C(=O)N[C@@H](Cc1ccc(NC(=O)c2c(Cl)cccc2Cl)cc1)C(=O)O` [Example 52, 4-[(2,6-Dichlorobenzoyl)amino]-N-[[(4S)-3-[[(1,1-dimethylethyl)amino]carbonyl]-4-thiazolidinyl]carbonyl]-L-phenylalanine], the IC50 in test [1] was at most 250 nM; in test [2], 50 to 750 nM.

On to `CCOC(=O)N1CSC[C@H]1C(=O)N[C@@H](Cc1ccc(NC(=O)c2c(Cl)cccc2Cl)cc1)C(=O)OC` (relative stereo) [Example 15, [R-(R*,S*)]-4-[[[1-[[4-[(2,6-Dichlorobenzoyl)amino]phenyl]methyl]-2-methoxy-2-oxoethyl]amino]carbonyl]-3-thiazolidinecarboxylic Acid 3-Ethyl Ester], for which the values for the IC50 in test [1] and in test [2] were at least 1000 nM and at least 750 nM, respectively.

Turning to `O=C(O)CCC1(CCC(=O)N[C@@H](Cc2ccc(OCc3c(Cl)cccc3Cl)cc2)C(=O)O)CCC(=O)N1` (stereo partly drawn) [Example 113, 2-[3-[[(1S)-1-Carboxy-2-[4-[(2,6-dichlorophenyl)methoxy]phenyl]ethyl]amino]-3-oxo-propyl]-5-oxo-2-pyrrolidinepropanoic Acid], the IC50 in test [1] was at least 1000 nM; in test [2], 50 to 750 nM.

`CCOC(=O)N1[C@@H](C(=O)N[C@@H](Cc2ccc(OCc3c(Cl)cccc3Cl)cc2)C(=O)O)CSC12CCCC2` (relative stereo) [Example 161, [S-(R*,R*)]-3-[[[1Carboxy-2-[4-[(2,6-dichlorophenyl)methoxy]phenylethyl]amino]carbonyl]-1-thia-4-azapiro[4.4]nonane-4-carboxylic Acid 4-Ethyl Ester]: the results for the IC50 in test [1] and in test [2] were at least 1000 nM and at least 750 nM, respectively.

With `COC(=O)[C@H](Cc1ccc(NC(=O)c2c(Cl)cccc2Cl)cc1)NC(=O)[C@H]1CSCN1C(=O)CCCC(=O)O` (relative stereo) [Example 150, [S-(R*,R*)]-4-[[[1-[[4-[(2,6-Dichlorobenzoyl)amino]phenyl]methyl]-2-methoxy-2-oxoethyl]amino]carbonyl]-δ-oxo-3-thiazoidinepentanoic Acid], the IC50 is 250 to 1000 nM in test [1] and 50 to 750 nM in test [2].

With `CC(c1ccccc1)N1C(C(=O)O)CC1C(=O)NC(Cc1ccc(NC(=O)c2c(Cl)cccc2Cl)cc1)C(=O)O` (single isomer, unassigned) [Example 139], the IC50 in test [1] is at least 1000 nM; in test [2] it was 50 to 750 nM.

For `COCCC(=O)N1CSC[C@@H]1C(=O)N[C@@H](Cc1ccc(NC(=O)c2c(Cl)cccc2Cl)cc1)C(=O)O` [Example 262], the IC50 was at most 250 nM in test [1] and at most 50 nM in test [2].

`O=C(Nc1ccc(C[C@H](NC(=O)[C@H]2CCCCN2C(=O)C2CCCO2)C(=O)O)cc1)c1c(Cl)cccc1Cl` (stereo partly drawn) [Example 253]: the IC50 in test [1] was at most 250 nM; in test [2], 50 to 750 nM.

`CC1(C)SC[C@H](C(=O)N[C@@H](Cc2ccc(NC(=O)c3c(Cl)cccc3Cl)cc2)C(=O)O)N1C(=O)CCC(=O)O` (relative stereo) [Example 85, [S-(R*,R*)]-4-[[[1-Carboxy-2-[4-[(2,6-dichlorobenzoyl)amino]phenyl]ethyl]amino]carbonyl]-2,2-dimethyl-γ-oxo-3-thiazolidinebutanoic Acid]: the IC50 in test [1] was at most 250 nM; in test [2], at most 50 nM.

On to `O=C(Nc1ccc(C[C@H](NC(=O)[C@@H]2CSCCN2C(=O)CCc2nnn[nH]2)C(=O)O)cc1)c1c(Cl)cccc1Cl` [Example 103, 4-[(2,6-Dichlorobenzoyl)amino]-N-[[(3R)-4-[1-oxo-3-(1H-tetrazol-5-yl)propyl]-3-thiomorpholinyl]-carbonyl]-L-phenylalanine], for which the IC50 in test [1] was 250 to 1000 nM; in test [2], at most 50 nM.

Consider `CCN(CC)C(=O)N1CSC[C@@H]1C(=O)N[C@@H](Cc1ccc(NC(=O)c2c(Cl)cccc2Cl)cc1)C(=O)OC` [Example 7, 4-[(2,6-Dichlorobenzoyl)amino]-N-[[(4S)-3-[(diethylamino)carbonyl]-4-thiazolidinyl]carbonyl]-L-phenylalanine Methyl Ester], for which the IC50 in test [1] was at least 1000 nM; in test [2], 50 to 750 nM.

With `O=C(O)c1cncc(C(=O)N2CCC(C(=O)N[C@@H](Cc3ccc(NC(=O)c4c(Cl)cccc4Cl)cc3)C(=O)O)CC2)c1` [Example 222], the IC50 in test [1] was at least 1000 nM; in test [2], 50 to 750 nM.

As to `CCOC(=O)N1CSC[C@@H]1C(=O)N[C@@H](Cc1ccc(OCc2c(Cl)cccc2Cl)cc1)C(=O)NO` [Example 92], the IC50 is at least 1000 nM in test [1] and at least 750 nM in test [2].
